Molecular target: T1, P2X7 receptor (Homo sapiens, UniProt Q99572)
T1 construct: host or cells: THP-1 cells differentiated with LPS and IFN-γ
T1 sequence (Q99572 1-595): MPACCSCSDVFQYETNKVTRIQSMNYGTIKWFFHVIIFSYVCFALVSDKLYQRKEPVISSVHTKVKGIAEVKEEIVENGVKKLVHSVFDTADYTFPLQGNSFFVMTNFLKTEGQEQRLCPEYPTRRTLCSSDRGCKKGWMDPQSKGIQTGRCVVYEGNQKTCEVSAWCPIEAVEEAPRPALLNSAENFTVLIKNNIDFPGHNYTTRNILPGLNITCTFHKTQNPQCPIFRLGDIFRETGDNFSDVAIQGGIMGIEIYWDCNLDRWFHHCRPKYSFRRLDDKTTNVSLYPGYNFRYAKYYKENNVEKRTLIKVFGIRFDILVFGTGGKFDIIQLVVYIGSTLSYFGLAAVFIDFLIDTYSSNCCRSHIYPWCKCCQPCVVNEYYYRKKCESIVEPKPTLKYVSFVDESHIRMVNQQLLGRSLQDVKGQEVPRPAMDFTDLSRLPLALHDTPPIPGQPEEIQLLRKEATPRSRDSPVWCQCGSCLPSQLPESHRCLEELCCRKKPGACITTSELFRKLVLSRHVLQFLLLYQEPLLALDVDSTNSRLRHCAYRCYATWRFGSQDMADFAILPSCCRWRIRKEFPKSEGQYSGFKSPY
Experiment: IL-1β release assay (BzATP-stimulated, LPS/IFN-γ differentiated THP-1 cells, ELISA)
Format: cell-based
Conditions: at 0.1 μM (asterisk symbols)
Procedure: THP-1 cells (ATCC Cat # 285-IF-100) are plated in 96 well plates at a concentration of 200,000 cells per well and allowed to differentiate in RPMI-1640 media (ATCC Cat # 30-2001) containing 10% FBS, 100 IU/mL penicillin, 100 ug/mL streptomycin, 100 ng/mL LPS and 100 ng/mL IFN-γ for 16 hours. Following differentiation, the cells are treated for an additional 2 hours in RPMI-1640 media containing 100 IU/mL penicillin, 100 ug/mL streptomycin and fresh LPS at 100 ng/mL. The cells are then pretreated for 30 minutes with the compound of interest at the appropriate concentration in RPMI media containing 100 IU/mL penicillin, 100 ug/mL streptomycin. Following the pretreatment 2′,3′-O-(4-benzoylbenzoyl)-adenosine 5′-triphosphate (Sigma Aldrich Cat# B6396) is added to a final concentration of 250 uM and the cells incubated for an additional 45 minutes. 30 uL of cell supernatant is then collected and […] levels determined via ELISA (R&D systems Cat. # HSLB50) according to manufacturer's recommendations using the Tecan Safire plate reader. Background adjusted IL-1β levels of drug treated and non-treated cells are used to calculate the percent inhibition.

SMILES | inhibition at 0.1 µM
CC12CC3CC(C)(C1)CC(CC(=O)Nc1cccc4c(=O)n(Cc5ccc(F)cc5F)ccc14)(C3)C2 [Compound 764] | ≥ 75%
CC12CC3CC(C)(C1)CC(CC(=O)Nc1cccc4c1CCN(Cc1ccc(F)cc1F)C4=O)(C3)C2 [Compound 765] | 25 to 50%
CC12CC3CC(C)(C1)CC(CC(=O)Nc1cccc4c(=O)n(CC5COc6ccccc6O5)ccc14)(C3)C2 (stereo not shown) [Compound 766] | 50 to 75%
CN1CCC(Cn2ccc3c(NC(=O)CC45CC6CC(CC(C6)C4)C5)cccc3c2=O)CC1 [Compound 767] | ≥ 75%
CS(=O)(=O)c1ccc(Cn2ccc3c(NC(=O)CC45CC6CC(CC(C6)C4)C5)cccc3c2=O)cc1 [Compound 768] | 50 to 75%
O=C(CC12CC3CC(CC(C3)C1)C2)Nc1cccc2c(=O)n(Cc3cccc4c3OCCO4)ccc12 [Compound 769] | ≥ 75%
O=C(CC12CC3CC(CC(C3)C1)C2)Nc1cccc2c(=O)n(Cc3cn4ccccc4n3)ccc12 [Compound 770] | ≥ 75%
O=C(CC12CC3CC(CC(C3)C1)C2)Nc1cccc2c(=O)n(C[C@H]3CCCO3)ccc12 [Compound 771] | ≥ 75%
CCN1CCCC1Cn1ccc2c(NC(=O)CC34CC5CC(C)(CC(C)(C5)C3)C4)cccc2c1=O (stereo not shown) [Compound 772] | 50 to 75%
CC(C)(C)OC(=O)N1CCCC1Cn1ccc2c(NC(=O)CC34CC5CC(CC(C5)C3)C4)cccc2c1=O (stereo not shown) [Compound 773] | ≥ 75%
CC(C)(C)OC(=O)N1CCC[C@@H]1Cn1ccc2c(NC(=O)CC34CC5CC(CC(C5)C3)C4)cccc2c1=O [Compound 774] | ≥ 75%
NC(=O)[C@H](Cc1ccccc1)n1ccc2c(NC(=O)CC34CC5CC(CC(C5)C3)C4)cccc2c1=O [Compound 776] | ≥ 75%
CC12CC3CC(C)(C1)CC(CC(=O)Nc1cccc4c1CCN(Cc1ccccc1)C4=O)(C3)C2 [Compound 777] | ≥ 75%
Cc1cnc(CN2CCc3c(NC(=O)CC45CC6CC(C)(CC(C)(C6)C4)C5)cccc3C2=O)cn1 [Compound 778] | ≥ 75%
O=C(CC12CC3CC(CC(C3)C1)C2)Nc1cccc2c(=O)n(Cc3ccc4c(c3)OCO4)ccc12 [Compound 779] | ≥ 75%
O=C(CC12CC3CC(CC(C3)C1)C2)Nc1cccc2c(=O)n(CCCN3CCOCC3)ccc12 [Compound 781] | ≥ 75%
O=C(CC12CC3CC(CC(C3)C1)C2)Nc1cccc2c(=O)n(CCc3cccnc3)ccc12 [Compound 782] | ≥ 75%
O=C(CC12CC3CC(CC(C3)C1)C2)Nc1cccc2c(=O)n(CCN3CCCC3)ccc12 [Compound 783] | ≥ 75%
O=C(CC12CC3CC(CC(C3)C1)C2)Nc1cccc2c(=O)n(CCc3ccncc3)ccc12 [Compound 784] | ≥ 75%
O=C(CC12CC3CC(CC(C3)C1)C2)Nc1cccc2c(=O)n(CCc3ccccn3)ccc12 [Compound 785] | 50 to 75%
O=C(CC12CC3CC(CC(C3)C1)C2)Nc1cccc2c(=O)n(CCN3CCSCC3)ccc12 [Compound 786] | ≥ 75%
CN1CCN(CCCn2ccc3c(NC(=O)CC45CC6CC(CC(C6)C4)C5)cccc3c2=O)CC1 [Compound 787] | ≥ 75%
CN1CCCC1CCn1ccc2c(NC(=O)CC34CC5CC(CC(C5)C3)C4)cccc2c1=O (stereo not shown) [Compound 788] | ≥ 75%
O=C(CC12CC3CC(CC(C3)C1)C2)Nc1cccc2c(=O)n(CCCN3CCCC3)ccc12 [Compound 789] | ≥ 75%
O=C(CC12CC3CC(CC(C3)C1)C2)Nc1cccc2c1CCN(Cc1ccccc1F)C2=O [Compound 790] | ≥ 75%
O=C(CC12CC3CC(CC(C3)C1)C2)Nc1cccc2c1CCN(Cc1ccc3c(c1)OCCO3)C2=O [Compound 791] | ≥ 75%
O=C(CC12CC3CC(CC(C3)C1)C2)Nc1cccc2c(=O)n(Cc3ccccc3Cl)ccc12 [Compound 793] | ≥ 75%
CN1CCC(CN2CCc3c(NC(=O)CC45CC6CC(CC(C6)C4)C5)cccc3C2=O)CC1 [Compound 794] | ≥ 75%

From patent publication US20090170838A1, “Bicycloheteroaryl compounds as P2X7 modulators and uses thereof” (Renovis, Inc., priority 2005, published 2009)
